Experimental data from patent US5047397A, “Linear analogs of atrial natriuretic peptides” (California Biotechnology Inc., priority 1988, dated 1991).
Where a SMILES comes first, the peptide text is derived from it. Bridges are numbered along the chain shown (N, C = ends). [ ]: non-standard residue; d: D form. The star is where a group is joined. Propanoyl(3-indol-3-yl) = O=C(CCc1c[nH]c2ccccc12)*; Acetyl(1-adamantyl) = O=C(CC12CC3CC(CC(C3)C1)C2)*; Acetyl(2-naphthyloxy) = O=C(COc1ccc2ccccc2c1)*; Acetyl(2-naphthyl) = O=C(Cc1ccc2ccccc2c1)*; Fmoc = O=C(OCC1c2ccccc2-c2ccccc21)*; Hydrocinnamoyl = O=C(CCc1ccccc1)*; Ava = NCCCCC(=O)O

The molecules below were run against T1, specific ANP receptor sites on BASM or BAE cells (Bos taurus, UniProt P10730) (assay: Competitive displacement receptor binding of (125I)-rANP(126-150) on cultured cells). Conditions: Table 2A; unit not given; in nM.
T1 construct: specific receptor sites on BASM or BAE cells; endogenous in cells; host or cells: cultured BASM and BAE cells
T1 sequence (P10730 42-537): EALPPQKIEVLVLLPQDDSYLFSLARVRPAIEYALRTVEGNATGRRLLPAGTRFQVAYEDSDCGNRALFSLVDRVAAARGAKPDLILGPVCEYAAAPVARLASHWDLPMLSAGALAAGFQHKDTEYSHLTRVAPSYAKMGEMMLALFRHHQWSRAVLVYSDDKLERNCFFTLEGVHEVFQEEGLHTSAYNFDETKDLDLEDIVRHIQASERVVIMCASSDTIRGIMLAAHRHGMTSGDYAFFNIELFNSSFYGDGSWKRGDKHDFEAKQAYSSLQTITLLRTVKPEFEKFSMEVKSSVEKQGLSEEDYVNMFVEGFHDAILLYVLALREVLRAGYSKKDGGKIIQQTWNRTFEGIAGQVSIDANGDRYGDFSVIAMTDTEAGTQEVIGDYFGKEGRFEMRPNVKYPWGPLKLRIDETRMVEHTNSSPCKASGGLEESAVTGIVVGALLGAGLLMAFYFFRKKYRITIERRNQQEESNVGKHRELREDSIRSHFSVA
Design: species or system bovine
Description: Analogous "competitive displacement" receptor binding assays are considered commonplace in the art for examining specific ligand-receptor interactions.
Assuming these ANP analogs act at one or more ANP receptor sites, then increased receptor affinity should reflect increased biological potency.
With CC[C@H](C)[C@@H]1NC(=O)[C@H](CCCNC(=N)N)NC(=O)[C@H](CC(=O)O)NC(=O)[C@H]([C@@H](C)CC)NC(=O)[C@H](CCCNC(=N)N)NC(=O)CNC(=O)CNC(=O)[C@H](Cc2ccccc2)NC(=O)[C@@H](NC(=O)[C@H](CO)NC(=O)[C@H](CO)NC(=O)[C@@H](N)CCCNC(=N)N)CSSC[C@@H](C(=O)N[C@@H](CC(N)=O)C(=O)N[C@@H](CO)C(=O)N[C@@H](Cc2ccccc2)C(=O)N[C@@H](CCCNC(=N)N)C(=O)N[C@@H](Cc2ccc(O)cc2)C(=O)O)NC(=O)CNC1=O [AP21] (H-RSSCFGGRIDRIGCNSFRY-OH; disulfide 4-14) the Ki was 15.15.

Same assay, conditions: concentration of unlabeled peptide displacing 50% of maximal binding of 0.5 nM (125I)-rANP(126-150); BASM or BAE cells
For CC[C@H](C)[C@@H]1NC(=O)[C@H](CCCNC(=N)N)NC(=O)[C@H](CC(=O)O)NC(=O)[C@H]([C@@H](C)CC)NC(=O)[C@H](CCCNC(=N)N)NC(=O)CNC(=O)CNC(=O)[C@@H](NC(=O)[C@H](CO)NC(=O)[C@H](CO)NC(=O)[C@@H](N)CCCNC(=N)N)CSSC[C@@H](C(=O)N[C@@H](CC(N)=O)C(=O)N[C@@H](CO)C(=O)N[C@@H](Cc2ccccc2)C(=O)N[C@@H](CCCNC(=N)N)C(=O)N[C@@H](Cc2ccc(O)cc2)C(=O)O)NC(=O)CNC(=O)[C@H](CC(C)C)NC(=O)CNC(=O)[C@H](CO)NC(=O)[C@H](CCC(N)=O)NC(=O)[C@H](C)NC(=O)CNC1=O [AP23, R--S--S--C--G--G--R--I--D--R--I--G--A--Q--S--G--L--G--C--N--S--F--R--Y] (H-RSSCGGRIDRIGAQSGLGCNSFRY-OH; disulfide 4-19), the “Ki(app)” value was 7.76 nM. In the case of CC[C@H](C)[C@@H]1NC(=O)[C@H](CCCNC(=N)N)NC(=O)[C@H](CC(=O)O)NC(=O)[C@H]([C@@H](C)CC)NC(=O)[C@H](CCCNC(=N)N)NC(=O)CNC(=O)[C@@H](NC(=O)[C@H](CO)NC(=O)[C@H](CO)NC(=O)[C@@H](N)CCCNC(=N)N)CSSC[C@@H](C(=O)N[C@@H](CC(N)=O)C(=O)N[C@@H](CO)C(=O)N[C@@H](Cc2ccccc2)C(=O)N[C@@H](CCCNC(=N)N)C(=O)N[C@@H](Cc2ccc(O)cc2)C(=O)O)NC(=O)CNC(=O)[C@H](CC(C)C)NC(=O)CNC(=O)[C@H](CO)NC(=O)[C@H](CCC(N)=O)NC(=O)[C@H](C)NC(=O)CNC1=O [AP24, R--S--S--C--G--R--I--D--R--I--G--A--Q--S--G--L--G--C--N--S--F--R--Y] (H-RSSCGRIDRIGAQSGLGCNSFRY-OH; disulfide 4-18), the “Ki(app)” value is reported as 25.2 nM. For CC[C@H](C)[C@H](NC(=O)[C@H](CCCNC(=N)N)NC(=O)[C@H](CC(=O)O)NC(=O)[C@@H](NC(=O)[C@H](CCCNC(=N)N)NC(=O)CNC(=O)CNC(=O)CCc1ccccc1)[C@@H](C)CC)C(=O)NCC(=O)N[C@@H](C)C(N)=O [AP130, (desNH2 --F)--G--G--R--I--D--R--I--G--A--NH2] (Hydrocinnamoyl-GGRIDRIGA-NH2), the “Ki(app)” value was 8.8 nM. With CC[C@H](C)[C@H](NC(=O)[C@H](CCCNC(=N)N)NC(=O)[C@H](CC(=O)O)NC(=O)[C@@H](NC(=O)[C@H](CCCNC(=N)N)NC(=O)CNC(=O)CNC(=O)CCc1ccccc1)[C@@H](C)CC)C(N)=O [AP132, (desNH2 --F)--G--G--R--I--D--R--I--NH2] (Hydrocinnamoyl-GGRIDRI-NH2) the “Ki(app)” value was 10.15 nM. CC[C@H](C)[C@H](NC(=O)[C@H](CCCNC(=N)N)NC(=O)[C@H](CC(=O)O)NC(=O)[C@@H](NC(=O)[C@H](CCCNC(=N)N)NC(=O)CNC(=O)[C@@H](C)NC(=O)[C@H](Cc1ccccc1)NC(=O)[C@H](C)N)[C@@H](C)CC)C(=O)NCC(=O)N[C@@H](C)C(N)=O [AP133, A--F--A^ --G--R--I--D--R--I--G--A--NH2] (H-AF[dA]GRIDRIGA-NH2) was tested, and the “Ki(app)” value was 2.93 nM. CC[C@H](C)[C@H](NC(=O)[C@H](CCCNC(=N)N)NC(=O)[C@H](CC(=O)O)NC(=O)[C@@H](NC(=O)[C@H](CCCNC(=N)N)NC(=O)CNC(=O)CNC(=O)[C@@H](Cc1ccccc1)NC(=O)[C@H](C)N)[C@@H](C)CC)C(=O)NCC(=O)N[C@@H](C)C(N)=O [AP151, A--F^ --G--G--R--I--D--R--I--G--A--NH2] (H-A[dF]GGRIDRIGA-NH2) was tested, and the “Ki(app)” value was 39.6 nM. CC[C@H](C)[C@H](NC(=O)[C@H](CCCNC(=N)N)NC(=O)[C@H](CC(=O)O)NC(=O)[C@@H](NC(=O)[C@H](CCCNC(=N)N)NC(=O)[C@@H](C)NC(=O)CNC(=O)[C@H](Cc1ccccc1)NC(=O)[C@H](C)N)[C@@H](C)CC)C(=O)NCC(=O)N[C@@H](C)C(N)=O [AP157, A--F--G--A^ --R--I--D--R--I--G--A--NH2] (H-AFG[dA]RIDRIGA-NH2) was tested, and the “Ki(app)” value was 5.90 nM. With CC[C@H](C)[C@H](NC(=O)[C@H](CCCNC(=N)N)NC(=O)[C@H](CC(=O)O)NC(=O)[C@@H](NC(=O)[C@@H](CCCNC(=N)N)NC(=O)CNC(=O)CNC(=O)[C@H](Cc1ccccc1)NC(=O)[C@H](C)N)[C@@H](C)CC)C(=O)NCC(=O)N[C@@H](C)C(N)=O [AP301, A--F--G--G--R^ --I--D--R--I--G--A--NH2] (H-AFGG[dR]IDRIGA-NH2) the “Ki(app)” value was greater than 200 nM. With CC[C@@H](C)[C@@H](NC(=O)[C@H](CCCNC(=N)N)NC(=O)CNC(=O)CNC(=O)[C@H](Cc1ccccc1)NC(=O)[C@H](C)N)C(=O)N[C@@H](CC(=O)O)C(=O)N[C@@H](CCCNC(=N)N)C(=O)N[C@H](C(=O)NCC(=O)N[C@@H](C)C(N)=O)[C@@H](C)CC [AP302, A--F--G--G--R--I^ --D--R--I--G--A--NH2] (H-AFGGR[dI]DRIGA-NH2) the “Ki(app)” value was 18.9 nM. In the case of CC[C@H](C)[C@H](NC(=O)[C@H](CCCNC(=N)N)NC(=O)[C@@H](CC(=O)O)NC(=O)[C@@H](NC(=O)[C@H](CCCNC(=N)N)NC(=O)CNC(=O)CNC(=O)[C@H](Cc1ccccc1)NC(=O)[C@H](C)N)[C@@H](C)CC)C(=O)NCC(=O)N[C@@H](C)C(N)=O [AP303, A--F--G--G--R--I--D^ --R--I--G--A--NH2] (H-AFGGRI[dD]RIGA-NH2), the “Ki(app)” value is reported as greater than 200 nM. CC[C@H](C)[C@H](NC(=O)[C@H](CCCNC(=N)N)NC(=O)CNC(=O)CNC(=O)[C@H](Cc1ccccc1)NC(=O)[C@H](C)N)C(=O)N[C@@H](CC(=O)O)C(=O)N[C@H](CCCNC(=N)N)C(=O)N[C@H](C(=O)NCC(=O)N[C@@H](C)C(N)=O)[C@@H](C)CC [AP304, A--F--G--G--R--I--D--R^ --I--G--A--NH2] (H-AFGGRID[dR]IGA-NH2) was tested, and the “Ki(app)” value was 95.6 nM. CC[C@@H](C)[C@@H](NC(=O)[C@H](CCCNC(=N)N)NC(=O)[C@H](CC(=O)O)NC(=O)[C@@H](NC(=O)[C@H](CCCNC(=N)N)NC(=O)CNC(=O)CNC(=O)[C@H](Cc1ccccc1)NC(=O)[C@H](C)N)[C@@H](C)CC)C(=O)NCC(=O)N[C@@H](C)C(N)=O [AP305, A--F--G--G--R--I--D--R--I^ --G--A--NH2] (H-AFGGRIDR[dI]GA-NH2) was tested, and the “Ki(app)” value was 70.62 nM. CC[C@H](C)[C@H](NC(=O)[C@H](CCCNC(=N)N)NC(=O)[C@H](CC(=O)O)NC(=O)[C@@H](NC(=O)[C@H](CCCNC(=N)N)NC(=O)CNC(=O)CNC(=O)Cc1ccc2ccccc2c1)[C@@H](C)CC)C(=O)NCC(=O)N[C@@H](C)C(N)=O [AP306, (2--Naphthylacetyl)-G-G-R-I-D-R-I-G-A-NH2] ({Acetyl(2-naphthyl)}-GGRIDRIGA-NH2) was tested, and the “Ki(app)” value was 2.03 nM. For CC[C@H](C)[C@H](NC(=O)[C@H](CCCNC(=N)N)NC(=O)[C@H](CC(=O)O)NC(=O)[C@@H](NC(=O)[C@H](CCCNC(=N)N)NC(=O)CCCCNC(=O)COc1ccc2ccccc2c1)[C@@H](C)CC)C(N)=O [AP307, (2-Naphthoxyacetyl)-NH(CH2)4 CO-R-I-D-R-I-NH2] ({Acetyl(2-naphthyloxy)-Ava}-RIDRI-NH2), the “Ki(app)” value was 39.9 nM. With CC[C@H](C)[C@H](NC(=O)[C@H](CCCNC(=N)N)NC(=O)[C@H](CC(=O)O)NC(=O)[C@@H](NC(=O)[C@H](CCCNC(=N)N)NC(=O)CNC(=O)CNC(=O)CC12CC3CC(CC(C3)C1)C2)[C@@H](C)CC)C(N)=O [AP309, (1-AA)--G--G--R--I--D--R--I--NH2] ({Acetyl(1-adamantyl)}-GGRIDRI-NH2) the “Ki(app)” value was 30.0 nM. With CC[C@H](C)[C@H](NC(=O)[C@H](CCCNC(=N)N)NC(=O)[C@H](CC(=O)O)NC(=O)[C@@H](NC(=O)[C@H](CCCNC(=N)N)NC(=O)CNC(=O)CNC(=O)OCC1c2ccccc2-c2ccccc21)[C@@H](C)CC)C(N)=O [AP311, (FMOC)--G--G--R--I--D--R--I--NH2] (Fmoc-GGRIDRI-NH2) the “Ki(app)” value was 10.33 nM. For CC[C@H](C)[C@H](NC(=O)[C@H](CCCNC(=N)N)NC(=O)[C@H](CC(=O)O)NC(=O)[C@@H](NC(=O)[C@H](CCCNC(=N)N)NC(=O)CNC(=O)CNC(=O)OCC1c2ccccc2-c2ccccc21)[C@@H](C)CC)C(=O)NCC(=O)N[C@@H](C)C(N)=O [AP312, (FMOC)--G--G--R--I--D--R--I--G--A--NH2] (Fmoc-GGRIDRIGA-NH2), the “Ki(app)” value was 6.27 nM. With CC[C@H](C)[C@H](NC(=O)[C@H](CCCNC(=N)N)NC(=O)[C@H](CC(=O)O)NC(=O)[C@@H](NC(=O)[C@H](CCCNC(=N)N)NC(=O)CNC(=O)CNC(=O)CCc1c[nH]c2ccccc12)[C@@H](C)CC)C(=O)NCC(=O)N[C@@H](C)C(N)=O [AP313, (IP)--G--G--R--I--D--R--I--G--A--NH2] ({Propanoyl(3-indol-3-yl)}-GGRIDRIGA-NH2) the “Ki(app)” value was 4.52 nM.
